Targets include EIF2AK1 (Homo sapiens, UniProt Q9BQI3); PRKG2 (Homo sapiens, UniProt Q13237); AAK1 (Homo sapiens, UniProt Q2M2I8); PKN2 (Homo sapiens, UniProt Q16513); TSSK1B (Homo sapiens, UniProt Q9BXA7); SLK (Homo sapiens, UniProt Q9H2G2); AURKA (Homo sapiens, UniProt O14965); PIK3CD (Homo sapiens, UniProt O00329); PDGFRB (Homo sapiens, UniProt P09619); PLK4 (Homo sapiens, UniProt O00444); NLK (Homo sapiens, UniProt Q9UBE8); MET (Homo sapiens, UniProt P08581); FLT3 (Homo sapiens, UniProt P36888); CAMK4 (Homo sapiens, UniProt Q16566); EPHB6 (Homo sapiens, UniProt O15197); CSK (Homo sapiens, UniProt P41240); ITK (Homo sapiens, UniProt Q08881); EPHA4 (Homo sapiens, UniProt P54764); RIOK2 (Homo sapiens, UniProt Q9BVS4).

Holding throughout (test): biochemical
Set-up in all cases: KINOMEscan active-site competition binding, percent of control (100 = no competition)
What all share (settings): competition binding, percent control

The target in another test is T1, RIPK5 (Homo sapiens, UniProt Q6XUX3).
T1 construct: gene DSTYK

The target of test [1] is T2, ABL1(M351T)-phosphorylated (Homo sapiens, UniProt P00519, M351T).
T2 construct: phosphorylated

Test [2] addresses T3, RPS6KA5(Kin.Dom.1-N-terminal) (Homo sapiens, UniProt O75582).
T3 construct: Kin.Dom.1-N-terminal

The target of the next test is T4, MEK5 (Homo sapiens, UniProt Q13163).
T4 construct: gene MAP2K5

T3 sequence (O75582 whole entry): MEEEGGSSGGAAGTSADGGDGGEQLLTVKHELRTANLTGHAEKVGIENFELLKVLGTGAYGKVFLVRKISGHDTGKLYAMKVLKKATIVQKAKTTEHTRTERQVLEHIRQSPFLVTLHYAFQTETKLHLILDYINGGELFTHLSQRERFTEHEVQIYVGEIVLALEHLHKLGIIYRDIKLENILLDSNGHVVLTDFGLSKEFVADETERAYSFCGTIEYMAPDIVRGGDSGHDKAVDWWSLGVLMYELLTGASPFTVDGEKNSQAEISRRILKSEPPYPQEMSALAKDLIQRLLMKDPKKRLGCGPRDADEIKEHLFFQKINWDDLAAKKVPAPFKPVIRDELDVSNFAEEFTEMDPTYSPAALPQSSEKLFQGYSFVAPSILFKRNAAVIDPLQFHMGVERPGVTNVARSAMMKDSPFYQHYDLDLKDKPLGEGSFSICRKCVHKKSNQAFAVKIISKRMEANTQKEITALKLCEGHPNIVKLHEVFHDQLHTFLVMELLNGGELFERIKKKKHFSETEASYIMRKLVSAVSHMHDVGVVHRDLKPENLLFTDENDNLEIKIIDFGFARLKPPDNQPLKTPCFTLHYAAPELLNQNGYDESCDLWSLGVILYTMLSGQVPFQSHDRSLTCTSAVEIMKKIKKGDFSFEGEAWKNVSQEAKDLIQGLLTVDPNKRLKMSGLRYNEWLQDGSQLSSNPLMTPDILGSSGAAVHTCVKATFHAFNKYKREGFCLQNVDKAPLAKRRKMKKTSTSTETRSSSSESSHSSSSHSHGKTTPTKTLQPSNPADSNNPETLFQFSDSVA
Chain of PIK3CD (O00329 whole entry): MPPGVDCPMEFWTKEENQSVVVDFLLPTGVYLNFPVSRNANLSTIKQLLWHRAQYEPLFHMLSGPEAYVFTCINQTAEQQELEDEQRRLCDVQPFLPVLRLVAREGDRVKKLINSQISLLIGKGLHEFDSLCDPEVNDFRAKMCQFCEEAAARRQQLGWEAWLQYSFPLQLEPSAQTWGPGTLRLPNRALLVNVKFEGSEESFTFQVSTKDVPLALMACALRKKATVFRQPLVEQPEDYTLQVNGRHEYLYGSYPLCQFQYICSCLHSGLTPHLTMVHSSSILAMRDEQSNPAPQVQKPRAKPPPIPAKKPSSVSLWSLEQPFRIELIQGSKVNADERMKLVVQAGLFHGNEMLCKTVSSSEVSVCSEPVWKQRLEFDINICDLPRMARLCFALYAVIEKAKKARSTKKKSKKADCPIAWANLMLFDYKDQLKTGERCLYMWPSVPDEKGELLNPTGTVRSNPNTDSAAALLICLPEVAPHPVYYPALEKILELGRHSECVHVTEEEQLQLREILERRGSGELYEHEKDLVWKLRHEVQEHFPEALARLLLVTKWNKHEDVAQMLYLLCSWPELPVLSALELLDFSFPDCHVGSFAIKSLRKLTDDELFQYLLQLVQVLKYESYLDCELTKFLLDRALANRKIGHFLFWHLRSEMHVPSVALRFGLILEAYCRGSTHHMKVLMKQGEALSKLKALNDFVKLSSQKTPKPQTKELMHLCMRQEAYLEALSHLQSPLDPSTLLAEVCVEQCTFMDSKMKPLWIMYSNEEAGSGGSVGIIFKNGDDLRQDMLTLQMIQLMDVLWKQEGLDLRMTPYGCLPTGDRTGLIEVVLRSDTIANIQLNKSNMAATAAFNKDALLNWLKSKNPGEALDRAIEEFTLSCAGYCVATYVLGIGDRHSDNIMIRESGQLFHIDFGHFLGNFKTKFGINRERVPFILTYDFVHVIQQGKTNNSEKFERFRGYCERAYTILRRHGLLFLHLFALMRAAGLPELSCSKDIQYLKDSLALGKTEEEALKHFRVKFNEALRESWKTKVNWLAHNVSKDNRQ
Chain of CSK (P41240 whole entry): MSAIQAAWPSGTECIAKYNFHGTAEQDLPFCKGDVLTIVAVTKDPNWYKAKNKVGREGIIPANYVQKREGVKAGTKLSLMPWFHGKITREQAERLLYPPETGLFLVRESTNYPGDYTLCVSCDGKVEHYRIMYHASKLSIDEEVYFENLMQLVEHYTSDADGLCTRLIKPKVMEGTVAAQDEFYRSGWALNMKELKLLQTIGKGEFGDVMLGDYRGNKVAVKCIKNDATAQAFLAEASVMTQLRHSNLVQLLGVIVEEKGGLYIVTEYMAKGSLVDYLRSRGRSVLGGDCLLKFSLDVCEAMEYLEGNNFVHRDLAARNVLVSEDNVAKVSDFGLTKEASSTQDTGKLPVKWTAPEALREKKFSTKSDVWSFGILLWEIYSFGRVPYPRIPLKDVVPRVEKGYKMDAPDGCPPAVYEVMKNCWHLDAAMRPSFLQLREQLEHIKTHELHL
Chain of NLK (Q9UBE8 whole entry): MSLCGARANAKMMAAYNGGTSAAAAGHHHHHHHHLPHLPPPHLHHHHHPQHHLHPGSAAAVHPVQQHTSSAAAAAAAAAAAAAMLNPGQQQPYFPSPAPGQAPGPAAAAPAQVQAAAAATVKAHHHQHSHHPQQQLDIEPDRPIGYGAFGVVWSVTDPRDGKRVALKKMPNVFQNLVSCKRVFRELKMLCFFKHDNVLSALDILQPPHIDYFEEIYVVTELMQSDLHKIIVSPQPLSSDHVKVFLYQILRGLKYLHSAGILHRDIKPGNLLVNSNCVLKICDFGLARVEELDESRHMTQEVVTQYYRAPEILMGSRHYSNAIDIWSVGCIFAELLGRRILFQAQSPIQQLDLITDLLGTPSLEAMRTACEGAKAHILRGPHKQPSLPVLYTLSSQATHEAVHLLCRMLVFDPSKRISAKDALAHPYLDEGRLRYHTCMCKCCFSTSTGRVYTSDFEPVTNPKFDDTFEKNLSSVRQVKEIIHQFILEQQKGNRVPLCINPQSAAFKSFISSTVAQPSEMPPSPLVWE
Chain of ITK (Q08881 whole entry): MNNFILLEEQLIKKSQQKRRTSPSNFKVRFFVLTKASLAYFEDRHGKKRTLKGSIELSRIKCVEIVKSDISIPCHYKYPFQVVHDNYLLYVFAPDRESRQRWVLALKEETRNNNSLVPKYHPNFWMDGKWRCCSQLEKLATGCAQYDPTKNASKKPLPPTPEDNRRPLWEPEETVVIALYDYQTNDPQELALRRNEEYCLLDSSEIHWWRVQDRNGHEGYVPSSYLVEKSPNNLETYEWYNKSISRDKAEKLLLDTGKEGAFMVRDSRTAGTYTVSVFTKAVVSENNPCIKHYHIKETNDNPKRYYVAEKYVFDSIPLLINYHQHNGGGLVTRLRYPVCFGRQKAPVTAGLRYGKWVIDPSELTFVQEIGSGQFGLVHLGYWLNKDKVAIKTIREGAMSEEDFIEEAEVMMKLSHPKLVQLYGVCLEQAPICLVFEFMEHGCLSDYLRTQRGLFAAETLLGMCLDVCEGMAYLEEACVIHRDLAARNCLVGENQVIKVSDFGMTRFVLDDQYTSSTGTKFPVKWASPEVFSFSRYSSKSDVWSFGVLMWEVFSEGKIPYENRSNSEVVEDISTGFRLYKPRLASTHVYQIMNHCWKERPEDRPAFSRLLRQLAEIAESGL
Chain of EIF2AK1 (Q9BQI3 whole entry): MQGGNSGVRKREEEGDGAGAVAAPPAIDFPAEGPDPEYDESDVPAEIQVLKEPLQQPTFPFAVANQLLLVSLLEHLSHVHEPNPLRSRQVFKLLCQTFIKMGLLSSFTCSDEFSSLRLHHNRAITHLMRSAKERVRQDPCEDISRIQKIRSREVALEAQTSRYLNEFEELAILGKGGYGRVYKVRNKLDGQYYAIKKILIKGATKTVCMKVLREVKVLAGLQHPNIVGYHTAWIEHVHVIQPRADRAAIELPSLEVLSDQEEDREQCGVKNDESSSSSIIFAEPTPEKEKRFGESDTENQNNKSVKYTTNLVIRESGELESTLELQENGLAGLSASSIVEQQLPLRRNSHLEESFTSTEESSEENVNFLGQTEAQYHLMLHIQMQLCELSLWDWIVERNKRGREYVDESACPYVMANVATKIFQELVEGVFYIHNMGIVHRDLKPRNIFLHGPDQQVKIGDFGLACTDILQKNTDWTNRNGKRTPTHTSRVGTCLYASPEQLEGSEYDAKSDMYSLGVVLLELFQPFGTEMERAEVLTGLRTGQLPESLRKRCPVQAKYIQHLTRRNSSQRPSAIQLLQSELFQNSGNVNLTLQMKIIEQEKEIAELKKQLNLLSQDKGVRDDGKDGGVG
Chain of PRKG2 (Q13237 whole entry): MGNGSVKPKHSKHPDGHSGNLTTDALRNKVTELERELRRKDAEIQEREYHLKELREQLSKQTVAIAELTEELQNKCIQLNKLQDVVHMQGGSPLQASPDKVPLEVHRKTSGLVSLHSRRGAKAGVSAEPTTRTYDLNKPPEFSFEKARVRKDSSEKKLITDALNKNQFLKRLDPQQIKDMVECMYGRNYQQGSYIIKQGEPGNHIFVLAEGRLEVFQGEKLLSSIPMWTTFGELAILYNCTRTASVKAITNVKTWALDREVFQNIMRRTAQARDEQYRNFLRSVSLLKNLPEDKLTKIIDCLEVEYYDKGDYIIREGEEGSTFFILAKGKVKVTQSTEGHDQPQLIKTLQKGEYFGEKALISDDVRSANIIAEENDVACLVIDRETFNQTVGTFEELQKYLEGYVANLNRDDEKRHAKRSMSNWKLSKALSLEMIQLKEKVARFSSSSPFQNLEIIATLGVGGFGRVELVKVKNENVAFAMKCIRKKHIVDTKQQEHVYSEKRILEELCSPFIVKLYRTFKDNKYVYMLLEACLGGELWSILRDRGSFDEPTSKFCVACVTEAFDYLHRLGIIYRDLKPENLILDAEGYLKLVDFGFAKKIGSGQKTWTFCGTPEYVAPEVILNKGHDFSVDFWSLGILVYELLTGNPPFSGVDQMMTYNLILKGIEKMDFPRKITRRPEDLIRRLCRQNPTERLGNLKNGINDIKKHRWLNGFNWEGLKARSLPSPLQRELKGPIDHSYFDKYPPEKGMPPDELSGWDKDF

With `COc1ccc(-c2cnccc2-c2cnc(NC(=O)C(C)C)s2)c(C(F)(F)F)c1` [CRT0105446, N-{5-[3-(4-Methoxy-2-trifluoromethyl-phenyl)-pyridin-4-yl]-hiazol-2-yl}-isobutyramide], the remaining binding at 10 µM at EIF2AK1 turned out to be 100%; on PRKG2, 100%; on AAK1, 78%; at PKN2, 96%; at TSSK1B, 80%; on RIPK5, 86%. In addition, the remaining binding at 10 µM at SLK turned out to be 100%; at AURKA, 100%; at PIK3CD, 100%; in [1], 83%; on PDGFRB it was 51%; in test [2], 89%. Moreover, the remaining binding at 10 µM worked out at 89% at PLK4; 57% at NLK; 80% on MET; 41% at FLT3; 98% on CAMK4; 86% at EPHB6. Besides, the remaining binding at 10 µM on CSK was 91%; on MEK5 it was 100%; at ITK, 100%; at EPHA4 it was 100%; on RIOK2 it was 16%.
For the compound `Cc1ccc(-c2cnccc2-c2cnc(Nc3ccc(O)cc3)s2)c(Cl)c1` [CRT0105950, 4-{5-[3-(2-Chloro-4-methyl-phenyl)-pyridin-4-yl]-thiazol-2-ylamino}-phenol], the remaining binding at 10 µM on EIF2AK1 is 97%; at PRKG2, 73%; on AAK1 it was 51%; on PKN2, 26%; at TSSK1B, 100%; on RIPK5, 45%. Further, the remaining binding at 10 µM worked out at 95% at SLK; 18% at AURKA; 100% on PIK3CD; 66% in test [1]; 1.6% at PDGFRB; 50% in [2]. Moreover, the remaining binding at 10 µM at PLK4 was 43%; at NLK, 20%; on MET it was 16%; on FLT3, 0.55%; at CAMK4, 90%; at EPHB6, 17%. Also, the remaining binding at 10 µM is 71% at CSK; 60% at MEK5; 61% on ITK; 94% at EPHA4; 2% at RIOK2.

The record behind these values is paper PMC4770715, “LIM kinase inhibitors disrupt mitotic microtubule organization and impair tumor cell proliferation” (Oncotarget, 2015).
